Here are results for 1 compound from article PMC6688371, “Effect of the inhaled PDE4 inhibitor CHF6001 on biomarkers of inflammation in COPD” (Respiratory Research, 2019).

Read-outs that look alike come from different tables or passages of the source. Marks after values point to notes of the source that are not given here.

The data set is described as follows: Plasma pharmacokinetics at steady state (Day 32). The format is in vivo, human. The conditions noted are these: for Tmax,ss / CL/F / Cmax / AUC(0-t): plasma on Day 32; for Tmax,ss: median (range); for CL/F / Cmax / AUC(0-t): both sexes, human, inhaled or intranasal, geometric mean (%CV); for AUC(0-t): read-out: AUC0–12,ss. The procedure:
Induced sputum was collected pre-dose on Day 1 of each treatment period (for the first treatment period, the sample could be collected up to 10 days prior to Day 1), and 2 h post-dose on Days 20, 26 and 32 (see the Additional file 1 for further detail on sputum and blood analysis methods). Blood samples were taken pre-dose on Day 1, and pre-dose and at 30 min, and 1, 1.5, 2, 3, 4, 6, 8 and 12 h post-dose on Day 32. Other pre-dose assessments on Days 1 and 32 were spirometry (forced expiratory volume in 1 s [FEV1] and forced vital capacity [FVC]), forced oscillometry, and COPD Assessment Test (CAT), with Baseline Dyspnea Index recorded on Day 1 and Transition Dyspnea Index (TDI) on Day 32. Central and peripheral airways mechanics were assessed using forced oscillometry, with the following values determined: inspiratory and expiratory resistance (at 5 and 19 Hz), inspiratory and expiratory reactance, tidal expiratory flow limitation and the percentage of flow limited breaths.
The mean changes from baseline to Day 32 for lung function, CAT and TDI were analysed using similar methodology to sputum biomarkers, but were not log-transformed. […] The sputum concentration of CHF6001 was also evaluated at 2 h post-dose, using the mean of all values measured on Days 20, 26 and 32. Pharmacokinetic variables were summarised using geometric means and coefficients of variation, except for Tmax,ss, which is presented as median (range). […]
Validation procedures again followed those outlined for the analysis of biomarkers above. All […]
concentrations of biomarkers in human serum or plasma from regulatory studies.
Blood for the pharmacokinetic analysis was collected pre-dose and at 30 min, and 1, 1.5, 2, 3, 4, 6, 8 and 12 h post-dose on Day 32 of each treatment period. Samples were centrifuged at 2000 g for 15 min at 4C, with the resulting plasma shipped to the central laboratory at –60 […]
to –90C. The plasma concentration of CHF6001 was evaluated using a LC-MS/MS method following solid phase extraction. Validation procedures again followed those outlined for the analysis of biomarkers above. The bioanalytical method wa s found to be linear over the calibration range of 10 to 20,000 pg/mL. The precision and accuracy of the method was found to be within the target limits of within 20% at the lower limit of quantification 10 pg/mL and within 15% at all other concentrations.
The recovery of CHF6001 from human plasma was consistent across the analytical range , with no significant matrix effects. […]
for up to 24 h at the sample processing temperature (nominally +20C), a fter storage for 184 days in a freezer (nominally –80C) and after four freeze-thaw cycles at nominally – 80C / +20C. Therefore the method was considered to be suitable for measuring concentrations of CHF6001 in human plasma samples from regulatory studies.
The study was approved by two centralised ethics committees on behalf of the sites:
• UK: Health Research Authority, North West, Greater Manchester South Research Ethics Committee, Manchester (approval reference 16/NW/0553).
• Germany: Ethics Committee of Hesse Medical Association, Frankfurt am Main (approval reference FF 98/2016).
Patients had to meet all the following inclusion criteria to be eligible for enrolment into the […]
1. Written informed consent obtained prior to any study-related procedures;
2. Male or female aged ≥40 years;
3. A female was eligible to enter the study if they were of non-childbearing potential, i.e. physiologically incapable of becoming pregnant (e.g. postmenopausal women defined as being amenorrhoeic for ≥12 consecutive months without an alternative medical cause. If indicated, as per Investigator’s request, post -menopausal status

What is called CL/F is clearance divided by bioavailability, as obtained after extravascular dosing. What is called Cmax is the peak of the concentration-time curve. For the compound `CS(=O)(=O)Nc1ccc(C(=O)O[C@@H](Cc2c(Cl)c[n+]([O-])cc2Cl)c2ccc(OC(F)F)c(OCC3CC3)c2)cc1OCC1CC1` [CHF6001], the “Tmax,ss” value (800 μg BID inhaled) is on record as 2.00 (0.50; 4.08)^a h. The “Tmax,ss” value (1600 μg BID inhaled) was 2.00 (0.48; 4.05)^b h. The “Systemic exposure in relation to dose” value (Day 32, 800 vs 1600 μg BID) is listed as “broadly proportional to dose”. Moreover, under “800 ug, 800 μg BID inhaled”, the CL/F is 603 mL/min, the Cmax stood at 2.44 ng/mL and the AUC(0-t) worked out at 22.1 ng·h/mL. Further, under “1600 ug, 1600 μg BID inhaled”, the CL/F was 653 mL/min, the concentration peaked (Cmax) at 4.5 ng/mL and the AUC(0-t) stood at 40.8 ng·h/mL.
